From the METLIN SMRT retention time set (Domingo-Almenara et al. 2019)

Assay: gradient 5% acetonitrile 3 min, to 50% in 2 min, to 85% in 15 min, held 3 min, 100 µL/min
Conditions: column: Zorbax Extend-C18 2.1 x 50 mm; eluents: water / acetonitrile, 0.1% formic acid
In short: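 In both positive and negative ionization mode, a quadrupole time-of-flight mass spectrometer coupled to HPLC analyzed pure standards run in mixtures of ~100 molecules. The Zorbax Extend-C18 column (2.1 × 50 mm, 1.8 μm) was operated at 100 μL/min with water and acetonitrile, each containing 0.1% formic acid. The dead volume was 40 μL and the dwell volume 900 μL. Retention time came from adduct peaks that were computationally picked and individually inspected by hand.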

Going from `Cc1ccc(Cl)cc1NC(=O)CC1COc2ccccc2NC1=O` (stereo not given) to `Clc1ccc2nc3ccccc3cc2c1`, the RP-LC retention time rises from 767 s to 842 s.

Compared with `Cc1ccc(-c2nc3ccccn3c2Nc2ccc(F)cc2)cc1`, `CCOC(=O)c1cccc(Nc2c(-c3ccc(Br)cc3)nc3cnccn23)c1` is higher in RP-LC retention time: 717 s for the first, 1040 s for the second.

First: Cc1ccc(Cn2c(N3CCCC(C(=O)NCCc4cccs4)C3)nc3ccsc3c2=O)cc1 (stereo not given)
Second: Cc1ccc(CNC(=O)C2CCN(c3ccc(SCc4ccccc4)nn3)CC2)cc1
The RP-LC retention time of the first is higher: 1000 s for the first, 821 s for the second.

Compared with `Cc1noc(C)c1-c1ccc(S(=O)(=O)Nc2ccc3c(c2)OCCO3)cc1`, `COc1ccc(-c2c(C)noc2NC(C)=O)cc1S(=O)(=O)Nc1ccccc1` is lower in RP-LC retention time: 880 s for the first, 721 s for the second.

Going from `O=C(Nc1ccc(N2CCOCC2)cc1)C1CCCN(c2nccnc2Sc2ccccc2)C1` (stereo not given) to `Cc1cc2c(N3CCCC(C(=O)N4CCN(c5ccccc5F)CC4)C3)nccc2s1` (stereo not given), the RP-LC retention time falls from 945 s to 755 s.

Going from `CCCOc1ccc2nc(NC(=O)OC)[nH]c2c1` to `COc1ccccc1NC(=O)N(C)CCc1noc(COc2ccc(Cl)cc2)n1`, the RP-LC retention time rises from 652 s to 972 s.

Compared with `COc1ccc(-c2nc(CN3C(=O)C(O)(c4ccc(C)cc4)c4ccccc43)c(C)o2)cc1` (stereo not given), `CC(C)Oc1ccc(-c2noc(-c3nn(-c4ccc(Cl)cc4)ccc3=O)n2)cc1` is lower in RP-LC retention time: 1090 s for the first, 1060 s for the second.

Going from `CCc1sc(NC(=O)Cc2c(F)cccc2Cl)nc1-c1ccccc1` to `Cc1nn(CCC(=O)Nc2ccccc2Cl)c(=O)c2nn(-c3ccccc3)c(C)c12`, the RP-LC retention time falls from 1150 s to 827 s.

First: O=C(CN1CCN(Cc2ccccc2)C1=O)N1CCN(C2CCCCC2)CC1
Second: O=C(NC1CCCCCCC1)C1CCN(Cc2cc3ccccc3n2Cc2cccc(Cl)c2)CC1
The RP-LC retention time of the first is lower: 601 s for the first, 930 s for the second.

Compared with `CCN1CCN(CCCNC(=O)Cn2c(-c3cccs3)cc3ccccc32)CC1`, `C=CCc1cccc(/C=N/NC(=O)C[NH+]2CCN(Cc3ccccc3)CC2)c1[O-]` is higher in RP-LC retention time: 722 s for the first, 783 s for the second.

Compared with `COC(=O)c1cc(S(=O)(=O)N2CCCC2C(=O)Nc2nc(C)cs2)cn1C` (stereo not given), `CCCn1c(=O)sc2cc(S(=O)(=O)N3CCC(C(=O)NCc4ccc(C)o4)CC3)ccc21` is higher in RP-LC retention time: 791 s for the first, 960 s for the second.

Going from `Cn1cc(S(=O)(=O)Nc2ccc(F)cc2Cl)c2cccnc21` to `CCCn1cc(CCNS(=O)(=O)c2ccc(Cl)c(Cl)c2)c2cccnc21`, the RP-LC retention time rises from 814 s to 1000 s.

First: CC(=O)N1CCC(c2nc(-c3ccc4oc(-c5ccccc5)nc4c3)no2)CC1
Second: C[C@H]1CN(C(=O)NCc2ccccc2)C[C@@H]1c1nc(-c2ccncc2)no1
The RP-LC retention time of the first is higher: 987 s for the first, 715 s for the second.

Compared with `COC(=O)c1ccc2c(=O)n(-c3cc(C)cc(C)c3)c(N3CCSC3)nc2c1`, `Cc1ccc(-n2ccn3cc(-c4ccc(F)cc4)nc3c2=O)cc1Cl` is lower in RP-LC retention time: 1180 s for the first, 924 s for the second.

Going from `CCNc1cc(N2CCCC(CCC(=O)NC(C)c3c(C)nn(C)c3C)C2)ncn1` (stereo not given) to `Cc1nnc(C2CCCCCN2C(=O)CCc2c(C)nn(C)c2C)o1` (stereo not given), the RP-LC retention time rises from 582 s to 608 s.

Compared with `CCn1ccc(C(=O)NC)n1`, `COc1ccc(CC(=O)Nc2cc(N3CCOCC3)ncn2)cc1OC` is higher in RP-LC retention time: 566 s for the first, 582 s for the second.

First: CC(C)c1c(C2CCN(C(=O)C3(c4ccccc4)CC3)CC2)noc1N
Second: COc1ccc(NC(=O)N2c3ccccc3CC2c2nc(C(C)C)no2)c(OC)c1 (stereo not given)
The RP-LC retention time of the first is lower: 813 s for the first, 1080 s for the second.

Going from `CC(C)Cn1c(=O)c2ccccc2n(Cc2nc(-c3ccccc3Cl)no2)c1=O` to `Cn1cc(C2c3ccccc3C(=O)N2CC(N)=O)c2ccccc21` (stereo not given), the RP-LC retention time falls from 1170 s to 696 s.

First: CCS(=O)(=O)N1CCCc2cc(C(=O)NCc3ccc4c(c3)OCO4)ccc21
Second: COC(=O)c1ccc(CSc2nnc(CNC(=O)c3ccccc3)o2)o1
The RP-LC retention time of the first is higher: 832 s for the first, 683 s for the second.

Compared with `CCc1cccc(NS(=O)(=O)c2cc(-c3c(CC)noc3NC(C)=O)ccc2C)c1`, `COc1ccc(-c2nnc(-c3ccc(C)c(S(=O)(=O)N(C)CC(=O)O)c3)o2)cc1OC` is lower in RP-LC retention time: 900 s for the first, 748 s for the second.

Going from `CN1CCOc2ccc(NC(=O)c3cc(-c4ccc(F)cc4)n[nH]3)cc2C1=O` to `CCOc1nc2ccccc2nc1N1CCCC(C(=O)Nc2cccc(Cl)c2)C1` (stereo not given), the RP-LC retention time rises from 686 s to 1290 s.

First: COc1cc(CCC(=O)N2C[C@@H](C(N)=O)[C@H](c3nc(C)no3)C2)on1
Second: CCc1noc(-c2nc(-c3ccc(F)c(F)c3)no2)n1
The RP-LC retention time of the first is lower: 600 s for the first, 1090 s for the second.

With `O=C(NC1CCCCC1)c1ccc2c(c1)nc1n2CCN(C2CCCCC2)C1=O` the RP-LC retention time was 796 s.
